Assay results from the NIST ThermoML archive (doi:10.1007/s10765-013-1526-8).

How the values were obtained:
[1] = xn = mol fraction of the nth substance listed; settings: 101 kPa, Liquid; for speed of sound: Sing-around technique in a fixed-path interferometer
[2] = refractive index (Na D-line) (dimensionless); xn = mol fraction of the nth substance listed; settings: 101 kPa, Liquid

Brc1ccccc1 [bromobenzene] + CCCCC(CC)CO
Settings	mass density, [1] [kg/m3]	refractive index, [2]	speed of sound, [1] [m/s]	viscosity, [1] [mPa·s]
298.15 K, x1 = 0.0623	846.06	1.4348	1305	7.004
298.15 K, x1 = 0.1321	869.44	1.4416	1295	5.672
298.15 K, x1 = 0.202	895.09	1.4486	1290	4.56
298.15 K, x1 = 0.2694	924.23	1.4554	1285	3.717
298.15 K, x1 = 0.336	956.85	1.4625	1281	3.044
298.15 K, x1 = 0.3981	991.69	1.4693	1279	2.553
298.15 K, x1 = 0.4625	1031.18	1.4767	1277	2.187
298.15 K, x1 = 0.5272	1074.92	1.4844	1273	1.923
298.15 K, x1 = 0.5918	1122.9	1.4925	1268	1.728
298.15 K, x1 = 0.6627	1179.58	1.502	1259	1.594
298.15 K, x1 = 0.7278	1235.29	1.5112	1248	1.49
298.15 K, x1 = 0.7941	1295.12	1.5212	1236	1.444
298.15 K, x1 = 0.8633	1359.7	1.5325	1216	1.359
298.15 K, x1 = 0.9266	1418.41	1.5433	1194	1.266
298.15 K, x1 = 1	1488.12	1.557	1153	1.065
303.15 K, x1 = 0.0623	842.3	1.4332	1291	5.889
303.15 K, x1 = 0.1321	864.98	1.4403	1282	4.765
303.15 K, x1 = 0.202	891.19	1.4472	1276	3.838
303.15 K, x1 = 0.2694	920.76	1.4542	1272	3.126
303.15 K, x1 = 0.336	952.81	1.4611	1270	2.577
303.15 K, x1 = 0.3981	986.69	1.4678	1268	2.197
303.15 K, x1 = 0.4625	1026.09	1.475	1266	1.907
303.15 K, x1 = 0.5272	1069.83	1.4826	1264	1.702
303.15 K, x1 = 0.5918	1117.3	1.4906	1261	1.548
303.15 K, x1 = 0.6627	1173.8	1.5	1254	1.458
303.15 K, x1 = 0.7278	1229.12	1.5092	1241	1.39
303.15 K, x1 = 0.7941	1288.41	1.5191	1226	1.355
303.15 K, x1 = 0.8633	1351.6	1.5303	1206	1.297
303.15 K, x1 = 0.9266	1410.1	1.5412	1183	1.205
303.15 K, x1 = 1	1481.4	1.555	1138	1.005
308.15 K, x1 = 0.0623	837.02	1.4306	1279	5.101
308.15 K, x1 = 0.1321	859.74	1.4376	1273	4.181
308.15 K, x1 = 0.202	886.06	1.4447	1267	3.414
308.15 K, x1 = 0.2694	915.17	1.4517	1263	2.814
308.15 K, x1 = 0.336	947.49	1.4587	1259	2.35
308.15 K, x1 = 0.3981	981.89	1.4655	1254	2.004
308.15 K, x1 = 0.4625	1021.03	1.4728	1251	1.722
308.15 K, x1 = 0.5272	1064.57	1.4805	1247	1.522
308.15 K, x1 = 0.5918	1111.88	1.4886	1241	1.37
308.15 K, x1 = 0.6627	1168.02	1.4981	1232	1.265
308.15 K, x1 = 0.7278	1222.21	1.5072	1218	1.192
308.15 K, x1 = 0.7941	1279.2	1.5171	1203	1.149
308.15 K, x1 = 0.8633	1339.82	1.528	1183	1.099
308.15 K, x1 = 0.9266	1398.8	1.5388	1161	1.052
308.15 K, x1 = 1	1474.58	1.553	1122	0.972
